This passage reports Ki results from patent US9409908B2 (priority 2012, dated 2016).

Structures can show the parent of a compound that is named as a salt. Where two headings read alike, the source gives them in different places.

Test [1] deals with purified human plasma kallikrein (Homo sapiens (Human), UniProt P03952). Put plainly: biochemical. The format is biochemical.
Test [2] has as its target purified human Factor XIa (Homo sapiens (Human), UniProt P03951). As to the kind of experiment: biochemical. The format is biochemical. The following applies: read-out: Factor XIa Ki.

In general, Ki refers to a measure of affinity in units of concentration, obtained from inhibition or displacement.

Chain of purified human Factor XIa (P03951 whole entry, looked up): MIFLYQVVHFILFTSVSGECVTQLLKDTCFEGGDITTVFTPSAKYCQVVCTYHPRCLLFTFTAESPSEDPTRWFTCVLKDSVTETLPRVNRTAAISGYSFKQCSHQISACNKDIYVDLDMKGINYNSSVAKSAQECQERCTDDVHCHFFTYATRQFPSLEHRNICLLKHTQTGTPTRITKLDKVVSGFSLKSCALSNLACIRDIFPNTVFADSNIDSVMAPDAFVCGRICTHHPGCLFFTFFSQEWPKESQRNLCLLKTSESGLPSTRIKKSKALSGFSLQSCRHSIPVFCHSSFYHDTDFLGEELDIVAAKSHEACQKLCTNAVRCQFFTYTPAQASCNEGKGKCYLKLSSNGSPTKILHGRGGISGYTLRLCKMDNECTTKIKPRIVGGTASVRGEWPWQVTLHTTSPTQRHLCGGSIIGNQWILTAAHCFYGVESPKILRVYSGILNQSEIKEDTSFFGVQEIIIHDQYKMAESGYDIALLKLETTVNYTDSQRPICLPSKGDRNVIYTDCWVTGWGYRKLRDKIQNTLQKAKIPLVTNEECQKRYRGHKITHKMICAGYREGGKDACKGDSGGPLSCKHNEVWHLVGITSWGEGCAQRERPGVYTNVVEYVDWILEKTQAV
Chain of purified human Factor XIa (P03951 whole entry partner, looked up): as the sequence (P03951 whole entry, looked up) above
Chain of purified human plasma kallikrein (P03952 whole entry, looked up): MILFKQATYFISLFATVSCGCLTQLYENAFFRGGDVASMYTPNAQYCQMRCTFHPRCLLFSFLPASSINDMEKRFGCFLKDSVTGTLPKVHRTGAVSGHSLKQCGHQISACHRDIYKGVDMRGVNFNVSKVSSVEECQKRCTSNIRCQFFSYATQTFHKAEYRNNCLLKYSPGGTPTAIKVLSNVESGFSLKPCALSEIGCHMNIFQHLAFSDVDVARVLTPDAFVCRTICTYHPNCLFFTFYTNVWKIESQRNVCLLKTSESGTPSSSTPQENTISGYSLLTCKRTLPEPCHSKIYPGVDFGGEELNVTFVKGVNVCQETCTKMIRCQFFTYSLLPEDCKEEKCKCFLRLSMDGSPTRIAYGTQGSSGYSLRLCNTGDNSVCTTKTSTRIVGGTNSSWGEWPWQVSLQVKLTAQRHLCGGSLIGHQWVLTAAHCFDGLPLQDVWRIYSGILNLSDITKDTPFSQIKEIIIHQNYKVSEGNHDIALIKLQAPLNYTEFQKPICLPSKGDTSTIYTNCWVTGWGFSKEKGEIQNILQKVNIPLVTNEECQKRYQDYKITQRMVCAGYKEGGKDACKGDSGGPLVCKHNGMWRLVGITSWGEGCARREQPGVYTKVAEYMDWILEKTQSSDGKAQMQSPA
Chain of purified human plasma kallikrein (P03952 whole entry partner, looked up): as the sequence (P03952 whole entry, looked up) above

`COC(=O)Nc1ccc2c(c1)NC(=O)[C@H](C)CCC[C@H](N1CC(C)C(c3c(F)ccc(Cl)c3F)=CC1=O)c1cc-2ccn1` (single isomer, unassigned; isomer 2) [Example 178] yielded a Ki in test [1] (Plasma Kallikrein Ki) of 5.68 nM.

For `C[C@@H]1CCC[C@H](N2CCC(c3c(F)ccc(Cl)c3F)=CC2=O)c2cc(ccn2)-c2cc(Cl)c(O)c(Cl)c2NC1=O` [Example 20, (10R,14S)-4,6-Dichloro-14-[4-(3-chloro-2,6-difluorophenyl)-6-oxo-1,2,3,6-tetrahydropyridin-1-yl]-5-hydroxy-10-methyl-8,16-diazatricyclo[13.3.1.0^2,7]nonadeca-1(19),2,4,6,15,17-hexaen-9-one, TFA salt], the Ki in test [1] (read-out: Plasma Kallikrein Ki) came out at 973 nM. Consider `C[C@@H]1CCC[C@H](N2CCC(c3c(F)ccc(Cl)c3F)=CC2=O)c2cc(ccn2)-c2ccc(Nc3nnc(-c4ccco4)o3)cc2NC1=O` [Example 103, (10R,14S)-14-[4-(3-Chloro-2,6-difluorophenyl)-6-oxo-1,2,3,6-tetrahydropyridin-1-yl]-5-{[5-(furan-2-yl)-1,3,4-oxadiazol-2-yl]amino}-10-methyl-8,16-diazatricyclo[13.3.1.0^2,7]nonadeca-1(19),2(7),3,5,15,17-hexaen-9-one, TFA salt], for which, in test [2], the inhibitory constant (Ki) amounted to 6.13 nM.

Consider `COC(=O)Nc1ccc2c(c1)NC(=O)[C@H](C)CCC[C@H](N1CCC(c3c(C#N)ccc(C)c3F)=CC1=O)c1cc-2ccn1` [Example 104, Methyl N-[(10R,14S)-14-[4-(6-cyano-2-fluoro-3-methylphenyl)-6-oxo-1,2,3,6-tetrahydropyridin-1-yl]-10-methyl-9-oxo-8,16-diazatricyclo[13.3.1.0^2,7]nonadeca-1(18),2,4,6,15(19),16-hexaen-5-yl]carbamate, TFA salt], for which, in test [2], the Ki came out at 0.09 nM. Regarding `CC1CCC[C@H](N2CCC(c3c(F)ccc(Cl)c3F)=CC2=O)c2cc(ccn2)-c2ccc(C#N)cc2NC1=O` (stereo partly drawn) [Example 109, (14S)-14-[4-(3-Chloro-2,6-difluorophenyl)-6-oxo-1,2,3,6-tetrahydropyridin-1-yl]-10-methyl-9-oxo-8,16-diazatricyclo[13.3.1.0^2,7]nonadeca-1(18),2,4,6,15(19),16-hexaene-5-carbonitrile, TFA salt], the Ki in test [1] (read-out: Plasma Kallikrein Ki) was found to be 40 nM. On to `C[C@@H]1CCC[C@H](N2CCC(c3c(F)ccc(Cl)c3F)=CC2=O)c2cc(ccn2)-c2ccc(NC3O[C@H](CO)[C@@H](O)[C@H](O)[C@@H]3N)cc2NC1=O` (stereo partly drawn) [Example 127, (10R,14S)-5-{[(3S,4R,5S,6R)-3-amino-4,5-dihydroxy-6-(hydroxymethyl)oxan-2-yl]amino)-14-[4-(3-chloro-2,6-difluorophenyl)-6-oxo-1,2,3,6-tetrahydropyridin-1-yl]-10-methyl-8,16-diazatricyclo[13.3.1.0^2,7]nonadeca-1(19),2,4,6,15,17-hexaen-9-one], for which the Ki in test [2] turned out to be 3.61 nM. Take `C[C@@H]1CCC[C@H](N2CCC(c3c(F)ccc(Cl)c3F)=CC2=O)c2cc(ccn2)-c2ccc(NC3O[C@H](CO)[C@@H](O)[C@@H](O)[C@H]3NC(=O)OC(C)(C)C)cc2NC1=O` (stereo partly drawn) [Example 132, tert-butyl N-[(3R,4S,5S,6R)-2-{[(10R,14S)-14-[4-(3-chloro-2,6-difluorophenyl)-6-oxo-1,2,3,6-tetrahydropyridin-1-yl]-10-methyl-9-oxo-8,16-diazatricyclo[13.3.1.0^2,7]nonadeca-1(19),2,4,6,15,17-hexaen-5-yl]amino}-4,5-dihydroxy-6-(hydroxymethyl)oxan-3-yl]carbamate]: in test [1] (read-out: Plasma Kallikrein Ki), the Ki was determined as 17.3 nM. For the molecule `C[C@@H]1CCC[C@H](N2CCC(c3c(F)ccc(Cl)c3F)=CC2=O)c2cc(ccn2)-c2cc(-c3nn[nH]n3)ccc2NC1=O` [Example 140, (10R,14S)-14-[4-(3-chloro-2,6-difluorophenyl)-6-oxo-1,2,3,6-tetrahydropyridin-1-yl]-10-methyl-4-(2H-1,2,3,4-tetrazol-5-yl)-8,16-diazatricyclo[13.3.1.0^2,7]nonadeca-1(19),2(7),3,5,15,17-hexaen-9-one], the Ki in test [2] stood at 1.34 nM.

Turning to `C[C@@H]1CCC[C@H](N2CCC(c3c(F)ccc(Cl)c3F)=CC2=O)c2cc(ccn2)-c2cc(F)ccc2NC1=O` [Example 145, (10R,14S)-14-[4-(3-chloro-2,6-difluorophenyl)-6-oxo-1,2,3,6-tetrahydropyridin-1-yl]-4-fluoro-10-methyl-8,16-diazatricyclo[13.3.1.0^2,7]nonadeca-1(19),2(7),3,5,15,17-hexaen-9-one], in test [2], the Ki was 18.6 nM. Turning to `C[C@@H]1CCC[C@H](N2CCC(c3c(F)ccc(Cl)c3F)=CC2=O)c2cc(ccn2)-c2cc(C(=O)O)ccc2NC1=O` [Example 146, (10R,14S)-14-[4-(3-chloro-2,6-difluorophenyl)-6-oxo-1,2,3,6-tetrahydropyridin-1-yl]-10-methyl-9-oxo-8,16-diazatricyclo[13.3.1.0^2,7]nonadeca-1(19),2(7),3,5,15,17-hexaene-4-carboxylic acid], in test [2], the Ki amounted to 2.45 nM.

Take `COC(=O)Nc1ccc2c(c1)NC(=O)[C@H](C)CCC[C@H](N1CCC(c3cccc(Cl)c3F)=CC1=O)c1nc-2c(C)[nH]1` [Example 151, Methyl N-[(10R,14S)-14-[4-(3-chloro-2-fluorophenyl)-6-oxo-1,2,3,6-tetrahydropyridin-1-yl]-10,17-dimethyl-9-oxo-8,16,18-triazatricyclo[13.2.1.0^2,7]octadeca-1(17),2,4,6,15(18)-pentaen-5-yl]carbamate]: the Ki in test [1] (read-out: Plasma Kallikrein Ki) worked out at 23.8 nM. Turning to `COC(=O)Nc1ccc2c(c1)NC(=O)[C@H](C)CCC[C@H](N1CCC(c3ccnc(Cl)c3)=CC1=O)c1cc-2ccn1` [Example 156, Methyl N-[(10R,14S)-14-[4-(2-chloropyridin-4-yl)-6-oxo-1,2,3,6-tetrahydropyridin-1-yl]-10-methyl-9-oxo-8,16-diazatricyclo[13.3.1.0^2,7]nonadeca-1(19),2,4,6,15,17-hexaen-5-yl]carbamate, 2 TFA salt], the Ki in test [2] is above 446 nM. Still for that read-out and setting: to `COC(=O)c1ccc2c(c1)-c1cccc(c1)[C@@H](N1CCC(c3c(C(C)=O)ccc(Cl)c3F)=CC1=O)CCC[C@@H](C)C(=O)N2` [Example 172, Methyl (10R,14S)-14-[4-(6-acetyl-3-chloro-2-fluorophenyl)-6-oxo-1,2,3,6-tetrahydropyridin-1-yl]-10-methyl-9-oxo-8-azatricyclo[13.3.1.0^2,7]nonadeca-1(18),2,4,6,15(19),16-hexaene-4-carboxylate] belongs 140 nM; to `COC(=O)Nc1ccc2c(c1)NC(=O)[C@H](C)CCC[C@H](N1CCC(c3c(C#N)ccc(Cl)c3F)=CC1=O)c1cccc-2c1` [Example 173, Methyl N-[(10R,14S)-14-[4-(3-chloro-6-cyano-2-fluorophenyl)-6-oxo-1,2,3,6-tetrahydropyridin-1-yl]-10-methyl-9-oxo-8-azatricyclo[13.3.1.0^2,7]nonadeca-1(18),2,4,6,15(19),16-hexaen-5-yl]carbamate], 0.42 nM; to `C#Cc1ccc(Cl)c(F)c1C1=CC(=O)N([C@H]2CCC[C@@H](C)C(=O)Nc3cc(NC(=O)OC)ccc3-c3ccnc2c3)CC1` [Example 181, Methyl N-[(10R,14S)-14-[4-(3-chloro-6-ethynyl-2-fluorophenyl)-6-oxo-1,2,3,6-tetrahydropyridin-1-yl]-10-methyl-9-oxo-8,16-diazatricyclo[13.3.1.0^2,7]nonadeca-1(19),2(7),3,5,15,17-hexaen-5-yl]carbamate], 0.1 nM. Consider `C[C@@H]1CCC[C@H](N2CCC(c3cc(Cl)ccc3-n3ccnn3)=CC2=O)c2cc(ccn2)-c2ccccc2NC1=O` [Example 189, (10R,14S)-14-{4-[5-chloro-2-(1H-1,2,3-triazol-1-yl)phenyl]-6-oxo-1,2,3,6-tetrahydropyridin-1-yl}-10-methyl-8,16-diazatricyclo[13.3.1.0^2,7]nonadeca-1(19),2(7),3,5,15,17-hexaen-9-one], for which the Ki in test [2] came to 2.28 nM. On the same count and under the same terms, to `C[C@@H]1CCC[C@H](N2CCC(c3c(F)ccc(Cl)c3F)=CC2=O)c2cc(ccn2)-c2ccc(NC(=N)N)cc2NC1=O` [Example 192, 1-[(10R,14S)-14-[4-(3-chloro-2,6-difluorophenyl)-6-oxo-1,2,3,6-tetrahydropyridin-1-yl]-10-methyl-9-oxo-8,16-diazatricyclo[13.3.1.0^2,7]nonadeca-1(19),2,4,6,15,17-hexaen-5-yl]guanidine, 2 TFA salt] belongs 91 nM.

Turning to `COC(=O)c1cc2c(cc1N)NC(=O)[C@H](C)CCC[C@H](N1CCC(c3c(F)ccc(Cl)c3F)=CC1=O)c1cc-2ccn1` [Example 197, Methyl (10R,14S)-5-amino-14-[4-(3-chloro-2,6-difluorophenyl)-6-oxo-1,2,3,6-tetrahydropyridin-1-yl]-10-methyl-9-oxo-8,16-diazatricyclo[13.3.1.0^2,7]nonadeca-1(19),2,4,6,15,17-hexaene-4-carboxylate, 2 TFA salt], the Ki in test [2] is 4.54 nM. `C[C@@H]1CCC[C@H](N2CCC(c3c(F)ccc(Cl)c3F)=CC2=O)c2cc(ccn2)-n2nc(C(=O)O)cc2NC1=O` [Example 222, (9R,13S)-13-[4-(3-chloro-2,6-difluorophenyl)-6-oxo-1,2,3,6-tetrahydropyridin-1-yl]-9-methyl-8-oxo-2,3,7,15-tetraazatricyclo[12.3.1.0^2,6]octadeca-1(18),3,5,14,16-pentaene-4-carboxylic acid]: the Ki in test [2] stood at 88.4 nM.

Regarding `C[C@@H]1CCC[C@H](N2CCC(c3c(F)ccc(Cl)c3F)=CC2=O)c2cc(ccn2)-n2nc(C3CC3)cc2NC1=O` [Example 223, (9R,13S)-13-[4-(3-chloro-2,6-difluorophenyl)-6-oxo-1,2,3,6-tetrahydropyridin-1-yl]-4-cyclopropyl-9-methyl-2,3,7,15-tetraazatricyclo[12.3.1.0^2,6]octadeca-1(18),3,5,14,16-pentaen-8-one], the Ki in test [2] was found to be 302 nM.

For `COC(=O)Nc1cc2n(n1)-c1ccnc(c1)[C@@H](N1CCC(c3c(F)ccc(Cl)c3F)=CC1=O)CCC[C@@H](C)C(=O)N2` [Example 224, Methyl N-[(9R,13S)-13-[4-(3-chloro-2,6-difluorophenyl)-6-oxo-1,2,3,6-tetrahydropyridin-1-yl]-9-methyl-8-oxo-2,3,7,15-tetraazatricyclo[12.3.1.0^2,6]octadeca-1(18),3,5,14,16-pentaen-4-yl]carbamate], the Ki in test [2] is 298 nM.
